Reference: patent US10525055B2, “Opioid receptor antagonist prodrugs” (Nirsum Laboratories, Inc., priority 2017, dated 2020)

Assays:
[1] = Polymorph screening of solid state drug substances; details: for XRPD results (Dried): stirred 50 °C 72 hours, solids dried; for Visual observation 50° C. / Visual observation RT: target conc. 100 mg/ml; for Comment: stability of initial crystal form (pattern A): polymorph screen over Heptane
[2] = Plasma stability assay, rat plasma; format: in vitro ADME; details: 37° C., 10 μM
[3] = Physical characterization of solid state drug substance (PLM, XRPD, DSC, TGA); format: physicochemical; details: for Thermal Gravimetric Analysis, weight loss: at 120° C., heated from room temperature at 10° C./minute
Experimental: The analysis of the physical characteristics of drug substances that were in a solid state was conducted using polarized light microscopy (PLM), X-ray powder diffractometer (XRPD) assessment, Differential Scanning calorimetry (DSC) and Thermal Gravimetric Analysis (TGA). For PLM, samples were dispersed in immersion oil and were observed using an ocular lens (10×) and objective lens (20×) under crossed polarizers. For XRPD, samples were run on a diffractometer using the following method: Tube—Cu: K-alpha (λ=1.54179 Å); Generator—Voltage 40 kV, Current 40 mA; Scan scope—3 to 40°; sample rotation speed—15 rpm; scanning rate—10 deg/min. For DSC, ˜1 mg of sample was tested using a crimped aluminum pan and covered by a lid with a hole, heated from room temperature to 300° C. at a speed of 10° C./minute. For TGA, 2-5 mg of sample was placed in an open platinum pan and heated from room temperature to 300° C. at a rate of 10° C./minute.

[4] = Solubility determination in oil (cottonseed oil, sesame oil); details: heating temp. 60 °C, obs. temp. 25 °C
Experimental: A known amount of test substance (˜40 mg) was weighed into the vial, 100 μL of oil was added and heated to 60° C. and then system was slurried to reach equilibrium. […] Extra oil was added into the vial once compound precipitated out and then the system was re-equilibrated at 1000 rpm at room temperature (25° C.). Final concentration was determined by HPLC method as described below in Table 6a and 6b.

[5] = target: T1, DOR (Homo sapiens, UniProt P41143); experiment: Opioid receptor binding assay, DOR ([3H]-DADLE); details: DOR, MaxDose 10000 nM
T1 construct: expressed in transfected cells; membranes prepared from them

[6] = target: T2, MOR (Homo sapiens, UniProt P35372); experiment: Opioid receptor binding assay, MOR ([3H]DAMGO); details: MOR, MaxDose 10000 nM
T2 construct: expressed in transfected cells; membranes prepared from them

[7] = target: T3, KOR (Homo sapiens, UniProt P41145); experiment: Opioid receptor binding assay, KOR ([3H]Diprenorphine); details: KOR, MaxDose 10000 nM
T3 construct: expressed in transfected cells; membranes prepared from them

[8] = Dog pharmacokinetic studies, deep intramuscular; format: in vivo, Beagle dogs; details: dog IM, Cottonseed + 1% Benzyl Alcohol
[9] = MTBE, Isopropanol, EtOAc, Acetone

T2 sequence (P35372 whole entry): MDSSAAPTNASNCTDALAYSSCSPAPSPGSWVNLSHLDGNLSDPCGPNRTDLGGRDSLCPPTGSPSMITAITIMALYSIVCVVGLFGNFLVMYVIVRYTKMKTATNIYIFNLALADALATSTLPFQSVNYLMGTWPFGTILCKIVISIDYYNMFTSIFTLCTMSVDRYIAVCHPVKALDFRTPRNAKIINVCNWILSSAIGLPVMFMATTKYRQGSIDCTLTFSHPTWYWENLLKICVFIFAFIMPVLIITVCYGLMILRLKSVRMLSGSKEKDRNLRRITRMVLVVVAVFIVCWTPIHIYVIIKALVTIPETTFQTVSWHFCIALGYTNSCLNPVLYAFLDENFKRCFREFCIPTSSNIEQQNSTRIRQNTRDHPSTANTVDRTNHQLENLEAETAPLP
T3 sequence (P41145 whole entry): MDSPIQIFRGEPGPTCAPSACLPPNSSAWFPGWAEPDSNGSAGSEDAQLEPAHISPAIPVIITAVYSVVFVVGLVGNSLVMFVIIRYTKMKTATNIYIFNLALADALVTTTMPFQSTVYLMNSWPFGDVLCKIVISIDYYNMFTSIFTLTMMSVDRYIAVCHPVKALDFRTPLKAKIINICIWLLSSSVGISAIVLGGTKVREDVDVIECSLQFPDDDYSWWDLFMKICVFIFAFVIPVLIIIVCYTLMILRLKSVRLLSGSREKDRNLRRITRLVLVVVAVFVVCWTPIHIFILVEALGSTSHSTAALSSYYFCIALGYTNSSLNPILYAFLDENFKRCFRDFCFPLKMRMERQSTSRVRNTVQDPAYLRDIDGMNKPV
T1 sequence (P41143 whole entry): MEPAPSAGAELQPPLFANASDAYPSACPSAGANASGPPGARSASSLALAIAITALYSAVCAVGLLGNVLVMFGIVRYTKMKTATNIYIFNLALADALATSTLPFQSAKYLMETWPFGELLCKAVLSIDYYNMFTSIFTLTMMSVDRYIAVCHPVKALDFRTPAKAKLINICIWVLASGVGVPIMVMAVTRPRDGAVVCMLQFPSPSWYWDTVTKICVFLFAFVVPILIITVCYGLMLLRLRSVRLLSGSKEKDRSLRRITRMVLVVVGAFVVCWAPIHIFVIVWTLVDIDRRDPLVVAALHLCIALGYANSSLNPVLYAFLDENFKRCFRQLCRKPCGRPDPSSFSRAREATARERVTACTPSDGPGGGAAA

| SMILES | XRPD results (Dried) ([1]; Acetone) | Visual observation 50° C. ([1]; Acetone) | Visual observation RT ([1]; Acetone) | XRPD results (Dried) ([1]; EtOAc) | Visual observation 50° C. ([1]; EtOAc) | Visual observation RT ([1]; EtOAc) | XRPD results (Dried) ([1]; Heptane) | Visual observation 50° C. ([1]; Heptane) | Visual observation RT ([1]; Heptane) | XRPD results (Dried) ([1]; Isopropanol) | Visual observation 50° C. ([1]; Isopropanol) | Visual observation RT ([1]; Isopropanol) | XRPD results (Dried) ([1]; MTBE) | Visual observation 50° C. ([1]; MTBE) | Visual observation RT ([1]; MTBE) | % remaining at time point in minutes, 0 min [2] | % remaining at time point in minutes, 15 min [2] | % remaining at time point in minutes, 120 min [2] | % remaining at time point in minutes, 480 min [2] | % remaining at time point in minutes, 1440 min [2] | further results |
| --- | --- | --- | --- | --- | --- | --- | --- | --- | --- | --- | --- | --- | --- | --- | --- | --- | --- | --- | --- | --- | --- |
| CCCCCCCCCCOC(=O)Oc1ccc2c3c1O[C@H]1C(=O)CC[C@@]4(O)C(C2)N(CC2CC2)CC[C@]314 [Compound 10, (4aS,7aR,12bS)-3-(cyclopropylmethyl)-4a-hydroxy-7-oxo-2,3,4,4a,5,6,7,7a-octahydro-1H-4,12-methanobenzofuro[3,2-e]isoquinolin-9-yl decyl carbonate] | Pattern A | Clear | Slurry | Pattern A | Clear | Slurry | Pattern A | Slurry | Slurry | Pattern A | Clear | Slurry | Pattern A | Clear | Clear | 100% | 0% | 0% | 0% | 0% | Comment: stability of initial crystal form (pattern A) [1, 9]: stable form. Same form (pattern A); Thermal Gravimetric Analysis, weight loss [3]: Weight loss of 0.3047% |
| CCCCCCCCCCCCOC(=O)Oc1ccc2c3c1O[C@H]1C(=O)CC[C@@]4(O)C(C2)N(CC2CC2)CC[C@]314 [Compound 11, (4aS,7aR,12bS)-3-(cyclopropylmethyl)-4a-hydroxy-7-oxo-2,3,4,4a,5,6,7,7a-octahydro-1H-4,12-methanobenzofuro[3,2-e]isoquinolin-9-yl dodecyl carbonate] | Pattern A | Clear | Slurry | Pattern A | Clear | Slurry | Pattern B | Clear | Clear | Pattern A | Clear | Slurry | Pattern A | Clear | Clear | 100% | 0.7% | 0.3% | 0.2% | 0% | Comment: stability of initial crystal form (pattern A) [1, 9]: to be stable form; Pattern A generated; Thermal Gravimetric Analysis, weight loss [3]: Weight loss of 0.30% at; Approximate Solubility (mg/mL) in Excipient: Sesame oil [4]: <50 mg/mL |
| C=C1CC[C@@]2(O)C3Cc4ccc(OC(=O)OCCCCCCCCCCCCCCCC)c5c4[C@@]2(CCN3CC2CC2)[C@H]1O5 [Compound 19, (4aS,7aS,12bS)-3-(cyclopropylmethyl)-4a-hydroxy-7-methylene-2,3,4,4a,5,6,7,7a-octahydro-1H-4,12-methanobenzofuro[3,2-e]isoquinolin-9-yl hexadecyl carbonate] | Pattern A | Clear | Slurry | Pattern A | Clear | Slurry | Pattern A | Clear | Slurry | Pattern A | Clear | Slurry | Pattern A | Clear | Clear | 100% | 70.1% | 71.5% | 43.8% | 33.3% | Comment: stability of initial crystal form (pattern A) [1, 9]: to be stable fomr. Same crystal form; Thermal Gravimetric Analysis, weight loss [3]: Weight loss of 0.1623% |
| CCCCCCCCOC(=O)Oc1ccc2c3c1O[C@H]1C(=O)CC[C@@]4(O)C(C2)N(CC2CC2)CC[C@]314 [Compound 23, (4aS,7aR,12bS)-3-(cyclopropylmethyl)-4a-hydroxy-7-oxo-2,3,4,4a,5,6,7,7a-octahydro-1H-4,12-methanobenzofuro[3,2-e]isoquinolin-9-yl octyl carbonate] | – | – | – | – | – | – | – | – | – | – | – | – | – | – | – | 10% | 0% | 0% | 0% | 0% | %Inh@MaxDose [5]: 95.6%; Approximate Solubility (mg/mL) in Excipient: Cottonseed oil ([4]; Cottonseed oil): >407.7 mg/mL; Approximate Solubility (mg/mL) in Excipient: Sesame oil [4]: >423.9 mg/mL; %Inh@MaxDose [6]: 98.7%; %Inh@MaxDose [7]: 101.6% |
| C=C1CC[C@@]2(O)C3Cc4ccc(OC(=O)OCCCCCCCCCCCCC)c5c4[C@@]2(CCN3CC2CC2)[C@H]1O5 [Compound 30, (4aS,7aS,12bS)-3-(cyclopropylmethyl)-4a-hydroxy-7-methylene-2,3,4,4a,5,6,7,7a-octahydro-1H-4,12-methanobenzofuro[3,2-e]isoquinolin-9-yl tridecyl carbonate] | – | – | – | – | – | – | – | – | – | – | – | – | – | – | – | 100% | 65.7% | 40.3% | 30.5% | 22.2% | %Inh@MaxDose [5]: 84.3%; Approximate Solubility (mg/mL) in Excipient: Sesame oil [4]: 252.55 to 398.6 mg/mL; %Inh@MaxDose [6]: 82.5%; %Inh@MaxDose [7]: 97.6% |
| C=C1CC[C@@]2(O)C3Cc4ccc(OC(=O)NC(C)(C)C)c5c4[C@@]2(CCN3CC2CC2)[C@H]1O5 [Compound 40, (4aS,7aS,12bS)-3-(cyclopropylmethyl)-4a-hydroxy-7-methylene-2,3,4,4a,5,6,7,7a-octahydro-1H-4,12-methanobenzofuro[3,2-e]isoquinolin-9-yl tert-butylcarbamate] | Amorphous | Clear | Slurry | Pattern A | Clear | Slurry | Pattern A | Slurry | Slurry | Amorphous | Clear | Slurry | Amorphous | Clear | Clear | – | – | – | – | – | Comment: stability of initial crystal form (pattern A) [1, 9]: stable form. Same crystal form; X-ray Powder Diffraction ([3]; solid state drug substance, XRPD/PLM): Crystal form with partial |
| C=C1CC[C@@]2(O)C3Cc4ccc(OCOC(=O)CCCCCCCCCCCCC)c5c4[C@@]2(CCN3CC2CC2)[C@H]1O5 [Compound 45, (((4aS,7aS,12bS)-3-(cyclopropylmethyl)-4a-hydroxy-7-methylene-2,3,4,4a,5,6,7,7a-octahydro-1H-4,12-methanobenzofuro[3,2-e]isoquinolin-9-yl)oxy)methyl tetradecanoate] | – | – | – | – | – | – | – | – | – | – | – | – | – | – | – | – | – | – | – | – | %Inh@MaxDose [5]: 71.8%; AUC0-inf (ng · h/mL) prodrug ([8]; 30 mg/kg): 100 ng·h/mL; Half-life t1/2 (hour) prodrug ([8]; 30 mg/kg): 151 h; AUC0-inf (ng · h/mL) prodrug ([8]; 48 mg/kg): 267 ng·h/mL; Half-life t1/2 (hour) prodrug ([8]; 48 mg/kg): 171 h; %Inh@MaxDose [6]: 93.7%; %Inh@MaxDose [7]: 100.1% |
| C=C1CC[C@@]2(O)C3Cc4ccc(OC(=O)CCCCCCCCCCCCCCC)c5c4[C@@]2(CCN3CC2CC2)[C@H]1O5 [Compound 56, (4aS,7aS,12bS)-3-(cyclopropylmethyl)-4a-hydroxy-7-methylene-2,3,4,4a,5,6,7,7a-octahydro-1H-4,12-methanobenzofuro[3,2-e]isoquinolin-9-yl palmitate, reference compound] | – | – | – | – | – | – | – | – | – | – | – | – | – | – | – | 100% | 73.1% | 56.7% | 35.8% | 16.8% | Thermal Gravimetric Analysis, weight loss [3]: Weight loss of 0.1815% |
